Test system: mild to moderate AD patients
Experiment: Phase 3 trial in mild to moderate AD: safety outcomes (adverse events)
Type: in vivo, human
Settings: for Maximum mean change in haemoglobin from baseline: at 6 weeks
Description: Patients were monitored throughout for adverse events (AEs) and clinical laboratory testing, physical and neurological examinations and 12-lead electrocardiograms were performed at all clinic visits (screening, baseline and Weeks 2, 6, 13, 26, 39, 52, 65 and 69). Patients were also assessed at all visits for suicidal ideation and intent, and were systematically assessed for signs of serotonin toxicity.

[1] = high dose LMTM (75 or 125 mg b.i.d.)

## CN(C)c1ccc2c(c1)Sc1cc(N(C)C)ccc1N2 [LMTM, leuco-methythioninium bis(hydromethanesulfonate)]
4 mg b.i.d.
  Maximum mean change in haemoglobin from baseline: -0.01 g/L
75 mg b.i.d. (n = 267)
  AESI: ARIA, %: (1.5) %
  AESI: Methemoglobinemia, hemolytic anemia, and/or Heinz bodies, %: (0) %
  AESI: “Serotonin syndrome”, %: (0.7) %
  Anemia, % of patients: (8.2%)
  Anemia, number of patients: 22
  At least one TEAE, % of patients: (83.9%)
  At least one TEAE, number of patients: 224
  Blood and lymphatic system disorders, % of patients: (10.9%)
  Blood and lymphatic system disorders, number of patients: 29
  Blood folate decreased, % of patients: (6.7%)
  Blood folate decreased, number of patients: 18
  Cough, % of patients: (5.2%)
  Cough, number of patients: 14
  Deaths, %: (1.1) %
  Diarrhea, % of patients: (23.6%)
  Diarrhea, number of patients: 63
  Dysuria, % of patients: (2.6%)
  Dysuria, number of patients: 7
  Gastrointestinal disorders, % of patients: (39.3%)
  Gastrointestinal disorders, number of patients: 105
  Infections and infestations, % of patients: (31.1%)
  Infections and infestations, number of patients: 83
  Investigations, % of patients: (32.6%)
  Investigations, number of patients: 87
  Nausea, % of patients: (8.2%)
  Nausea, number of patients: 22
  Other SUSARs, %: (0.7) %
  Pollakiuria, % of patients: (5.6%)
  Pollakiuria, number of patients: 15
  Renal and urinary disorders, % of patients: (22.8%)
  Renal and urinary disorders, number of patients: 61
  Respiratory, thoracic and mediastinal disorders, % of patients: (12.0%)
  Respiratory, thoracic and mediastinal disorders, number of patients: 32
  Urinary incontinence, % of patients: (6.7%)
  Urinary incontinence, number of patients: 18
  Urinary tract infection, % of patients: (10.9%)
  Urinary tract infection, number of patients: 29
  Vomiting, % of patients: (9.4%)
  Vomiting, number of patients: 25
75 mg b.i.d.
  Maximum mean change in haemoglobin from baseline: -0.47 g/L
125 mg b.i.d. (n = 264)
  AESI: ARIA, %: (0.4) %
  AESI: Methemoglobinemia, hemolytic anemia, and/or Heinz bodies, %: (0.4) %
  AESI: “Serotonin syndrome”, %: (0) %
  Anemia, % of patients: (5.7%)
  Anemia, number of patients: 15
  At least one TEAE, % of patients: (86.7%)
  At least one TEAE, number of patients: 229
  Blood and lymphatic system disorders, % of patients: (9.5%)
  Blood and lymphatic system disorders, number of patients: 25
  Blood folate decreased, % of patients: (7.2%)
  Blood folate decreased, number of patients: 19
  Cough, % of patients: (4.2%)
  Cough, number of patients: 11
  Deaths, %: (1.1) %
  Diarrhea, % of patients: (25.4%)
  Diarrhea, number of patients: 67
  Dysuria, % of patients: (10.2%)
  Dysuria, number of patients: 27
  Gastrointestinal disorders, % of patients: (42.0%)
  Gastrointestinal disorders, number of patients: 111
  Infections and infestations, % of patients: (28.8%)
  Infections and infestations, number of patients: 76
  Investigations, % of patients: (30.3%)
  Investigations, number of patients: 80
  Nausea, % of patients: (7.2%)
  Nausea, number of patients: 19
  Other SUSARs, %: (1.5) %
  Pollakiuria, % of patients: (6.8%)
  Pollakiuria, number of patients: 18
  Renal and urinary disorders, % of patients: (24.6%)
  Renal and urinary disorders, number of patients: 65
  Respiratory, thoracic and mediastinal disorders, % of patients: (8.3%)
  Respiratory, thoracic and mediastinal disorders, number of patients: 22
  Urinary incontinence, % of patients: (4.5%)
  Urinary incontinence, number of patients: 12
  Urinary tract infection, % of patients: (9.8%)
  Urinary tract infection, number of patients: 26
  Vomiting, % of patients: (6.8%)
  Vomiting, number of patients: 18
125 mg b.i.d.
  Maximum mean change in haemoglobin from baseline: -0.93 g/L
% of the cases, all arms
  Non-fatal SAEs possibly related to treatment: 14%
All arms
  Patients with transient responses indicating a wish to be dead (Columbia Suicide Severity Rating Scale): 26 patients
All arms, evenly distributed between the three treatment groups
  Patients with one or more other non-fatal serious adverse events (SAEs): 97 patients
All arms, no dose relationship
  Patients who developed ARIA during the study, frequency: < 1%
  Patients who developed ARIA during the study, total: 8 patients
All arms, none related to treatment
  Patients who died during the study: 9 patients
All doses
  Haemolytic anemia cases: no case of haemolytic anemia
Both treated with LMTM 75 mg b.i.d., no concomitant serotonergic drug
  Patients with transient symptoms consistent with serotonergic excess: 2 patients
Control 4 mg b.i.d. (n = 354)
  AESI: ARIA, %: (0.8) %
  AESI: Methemoglobinemia, hemolytic anemia, and/or Heinz bodies, %: (0.3) %
  AESI: “Serotonin syndrome”, %: (0) %
  Anemia, % of patients: (2.8%)
  Anemia, number of patients: 10
  At least one TEAE, % of patients: (83.6%)
  At least one TEAE, number of patients: 296
  Blood and lymphatic system disorders, % of patients: (4.8%)
  Blood and lymphatic system disorders, number of patients: 17
  Blood folate decreased, % of patients: (5.9%)
  Blood folate decreased, number of patients: 21
  Cough, % of patients: (3.4%)
  Cough, number of patients: 12
  Deaths, %: (0.8) %
  Diarrhea, % of patients: (9.3%)
  Diarrhea, number of patients: 33
  Dysuria, % of patients: (0.8%)
  Dysuria, number of patients: 3
  Gastrointestinal disorders, % of patients: (24.6%)
  Gastrointestinal disorders, number of patients: 87
  Infections and infestations, % of patients: (24.9%)
  Infections and infestations, number of patients: 88
  Investigations, % of patients: (22.6%)
  Investigations, number of patients: 80
  Nausea, % of patients: (4.0%)
  Nausea, number of patients: 14
  Other SUSARs, %: (0.6) %
  Pollakiuria, % of patients: (1.7%)
  Pollakiuria, number of patients: 6
  Renal and urinary disorders, % of patients: (8.2%)
  Renal and urinary disorders, number of patients: 29
  Respiratory, thoracic and mediastinal disorders, % of patients: (7.9%)
  Respiratory, thoracic and mediastinal disorders, number of patients: 28
  Urinary incontinence, % of patients: (2.5%)
  Urinary incontinence, number of patients: 9
  Urinary tract infection, % of patients: (8.2%)
  Urinary tract infection, number of patients: 29
  Vomiting, % of patients: (0.6%)
  Vomiting, number of patients: 2
Control (4 mg b.i.d.)
  Patients with anaemia-related adverse event terms (grouped): 16%
Control arm (4 mg b.i.d.)
  Convulsion (SAE possibly related to treatment), cases: 4
Control patients (4 mg b.i.d.)
  Patients discontinuing for gastrointestinal or urinary adverse events: 1-2%
High dose LMTM
  Patients with anaemia-related adverse event terms (grouped): 22%
[1]
  Patients discontinuing for gastrointestinal adverse events: 9%
  Patients discontinuing for urinary tract adverse events: 3%
Patients also receiving acetylcholinesterase inhibitors (data not shown)
  Incidence of gastrointestinal adverse events with co-medication: about two-fold higher

From US12310973B2, “Administration and dosage of diaminophenothiazines” (WisTa Laboratories Ltd., priority 2016, dated 2025)
